This is an account of results in PubChem BioAssay (NCI).

Holding throughout (experiment): growth of human tumour cells (NCI), 48 h
Test [1] deals with HCC-2998 colon.
For test [2], the system named is HOP-92 NSCLC.
Test [3] has as its system K-562 leukemia.
The subject of test [4] is MALME-3M melanoma.
In test [5] the test system is OVCAR-4 ovarian.
For test [6], the system named is OVCAR-5 ovarian.
Test [7] concerns OVCAR-8 ovarian.
Test [8] has as its system SW-620 colon.
The subject of test [9] is TK-10 renal.
Test [10] has as its system UACC-62 melanoma.

The structures appear in SMILES notation. “And” between values parts separate entries of the source, which are not always exact repeats. Identical values can stand only once.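 How tested: cells in 96-well plates exposed to compound for 48 hours at five concentrations. GI50 is the concentration that inhibits growth by half. TGI: concentration producing complete growth inhibition.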 A value given as a limit tells only on which side of the number the result lay.

Take `CCN(CC)CCC(=O)Nc1ccc(Cn2nnc3c2C(=O)c2nnn(Cc4ccc(NC(=O)CCN(CC)CC)cc4)c2C3=O)cc1`: the GI50 in test [1] was 0.316 µM; in [2], 0.325 µM; in test [3], 0.669 µM; in test [4], 0.137 µM; in test [5], 0.133 µM; in test [6], 0.994 µM. Also, the GI50 in [7] was 1.83 µM; in [8], 0.395 µM; in [9] it was 13.2 µM; in test [10] it was 1.08 µM. In addition, the TGI was 0.987 µM in [1]; 0.913 µM in [2]; greater than 37.9 µM in [3]; 0.294 µM in test [4]; 0.263 µM in test [5]; 3.34 µM in test [6]. Besides, the TGI stood at 4.41 µM in test [7], 1.75 µM in test [8], 30.8 µM in test [9] and 2.67 µM in test [10].
As to `CCOC(=O)/C=C1\Nc2ccccc2C(c2ccccc2)=NC1OC(C)=O` (stereo not drawn), the TGI in test [1], in test [2], in [3], in test [4], in test [5] and in test [7] was greater than 100 µM in each case. For the same compound, the TGI in test [8] and in test [10] was greater than 100 µM in each case.
For the compound `COc1ccc2c(c1O)[C@@]13C=C(O)C(=O)C=C1[C@@H](C2)N(C)CC3`, the TGI in test [1], in [2], in test [3], in test [4], in test [5] and in test [6] was greater than 100 µM each time. The TGI in [7], in test [9] and in [10] was greater than 100 µM in each case.
Consider `COc1ccc(S(=O)(=O)N/N=C/C(=O)O)cc1`, for which the TGI was greater than 1250 µM in test [1]; 1110 µM in test [2]; greater than 1170 µM in [3]; greater than 1250 µM in test [4]; greater than 1210 µM in test [5]; greater than 1150 µM in test [6]. For the same compound, the TGI is 1100 µM in test [7], 1230 µM in test [8], greater than 1250 µM in test [9] and 984 µM in test [10].
Consider `CC(=O)[CH-]C(=O)c1ccccc1.CC(=O)[CH-]C(=O)c1ccccc1.[O]=[U+2]=[O]`, for which the GI50 in test [1] is 18.7 µM; in test [2] it was 39.9 µM; in test [3], 37.3 µM; in test [4], 21.8 µM; in [5], 40.3 µM; in test [6], greater than 100 µM. Besides, the GI50 is 35 µM in [7], 35.3 µM in test [8], 37.8 µM in test [9] and 33.1 µM in [10]. Moreover, the TGI is 65.4 µM in test [1]; greater than 100 µM in test [2]; greater than 100 µM in test [3]; 54.6 µM in test [4]; greater than 100 µM in test [5]; greater than 100 µM in [6]. Further, the TGI in test [7], in [8], in test [9] and in test [10] was greater than 100 µM in each case.
Regarding `O=C1c2c(O)cccc2C(C(=O)CCCCC(=O)C2c3cccc(O)c3C(=O)c3c(O)cccc32)c2cccc(O)c21`, the GI50 was 1.07 µM in test [1]; 1.3 µM in [2]; 1.21 µM in [3]; 1.21 µM in test [5]; 0.961 µM in [6]; 1.53 µM in [7]. The figures for the GI50 in test [8], in [9] and in [10] were 1.73 µM, 2.85 µM and 1.62 µM, respectively. Also, the TGI in test [1] is 2.63 µM and 3.14 µM; in test [2], 1.69 µM and 2.8 µM; in test [3] it was 7.66 µM and 2.49 µM; in [4], 4.38 µM and 2.92 µM; in test [5] it was 1.74 µM and 2.31 µM; in test [6], 1.22 µM and 1.85 µM. Further, the TGI was 2.16 µM and 5.26 µM in [7]; 10.1 µM and 7.17 µM in [8]; 3.65 µM and 8.35 µM in test [9]; 2.48 µM and 5.78 µM in [10].
Regarding `CC[C@]12C=CCN3CC[C@]4(C(=C(C(=O)OC)C1)Nc1cc(O)ccc14)[C@@H]32`, the GI50 in test [1] is 14.9 µM; in test [2] it was 11.6 µM; in test [3], 7.59 µM; in [4], 11.8 µM; in test [5], 22 µM; in [6] it was 19.8 µM. The GI50 is 24.5 µM in test [7], 16.3 µM in test [8], 30.8 µM in test [9] and 7.18 µM in test [10]. Further, the TGI is 29.6 µM in [1]; 26.1 µM in test [2]; greater than 100 µM in [3]; 26.3 µM in test [4]; 76.4 µM in test [5]; 57 µM in [6]. For the same compound, the TGI amounted to 68.8 µM in test [7], 36.6 µM in test [8], 99.7 µM in test [9] and 22.3 µM in [10].
For the compound `O=c1c2ccccc2nc(-c2ccccc2)n1NCC1(O)OCC(O)C(O)C1O` (stereo not drawn), the TGI in test [1], in test [2], in [3], in test [4], in test [5] and in [6] was greater than 100 µM in each case. The TGI in [7], in test [8], in test [9] and in test [10] was greater than 100 µM in each case.
With `CO[C@H]1C=C[C@]23c4cc5c(cc4CN(CC2O)[C@@H]3C1)OCO5` (stereo partly drawn), the TGI in [1] was 16.7 µM; in test [2], 2.74 µM; in test [3], greater than 100 µM; in [4], 20.4 µM; in test [5] it was 11.3 µM; in test [6], greater than 100 µM. For the same compound, the TGI in [7] was 38.5 µM; in test [8] it was greater than 100 µM; in test [9], greater than 100 µM; in [10], 19.6 µM.
Take `COc1ccc2nc3ccc(OC)cc3c(SCCCN)c2c1`: the GI50 in test [1] was 13.2 µM; in test [2], 3.59 µM; in [3], 1.67 µM; in test [4], 1.6 µM; in test [5] it was 5.02 µM; in test [6] it was 13.5 µM. The GI50 was 5.13 µM in [7], 1.44 µM in test [8], 2.03 µM in test [9] and 12 µM in test [10]. The TGI worked out at 30.7 µM in test [1]; 13.1 µM in test [2]; 3.89 µM in [3]; 10.5 µM in test [4]; 17 µM in [5]; 28.3 µM in test [6]. Further, the TGI amounted to 12.9 µM in [7], 3.15 µM in test [8], 10.5 µM in test [9] and 39.4 µM in test [10].
Turning to `O=C(Cc1nc2ccc(C(=O)c3ccccc3)cc2[nH]c1=O)C(=O)Nc1ccccc1[N+](=O)[O-]`, the TGI in [1], in test [2], in [3], in test [4], in test [5] and in test [6] was greater than 100 µM in each case. Further, the TGI in test [7], in test [8], in test [9] and in test [10] was greater than 100 µM in each case.
Consider `COC(=O)/C(C#N)=C1\N=NNN1CCCN1CCOCC1`, for which the TGI in test [1], in [2], in [3], in test [4], in [7] and in [8] was greater than 100 µM in each case. In addition, the TGI in [9] and in test [10] was greater than 100 µM in each case.
As to `CCCC/C(=N\N=C(N)N)c1ccc(F)cc1`, the GI50 in [1] is 2.77 µM; in test [2], 2.13 µM; in test [3], 0.469 µM; in test [4], 4.13 µM; in [5], 5.27 µM; in test [6], 5.08 µM. Also, the GI50 was 3.61 µM in test [7], 7.83 µM in test [9] and 3.14 µM in test [10]. Besides, the TGI in test [1] came out at 11 µM; in test [2] it was 8.93 µM; in test [3], 11.2 µM; in test [4], 18.5 µM; in test [5], 20 µM; in test [6], 17.8 µM. In addition, the TGI came out at 15.2 µM in test [7], 20.8 µM in test [9] and 14.8 µM in [10].
Turning to `O=C(OCc1ccccc1CN1CCOCC1)c1ccc(Br)cc1`, the TGI in test [1] is greater than 100 µM; in test [2], greater than 100 µM; in test [4], 60.4 µM; in test [5] it was greater than 100 µM; in test [6], greater than 100 µM; in [7] it was greater than 100 µM. In addition, the TGI in test [8], in test [9] and in test [10] was greater than 100 µM in each case.
Turning to `COc1cc2c3c(c1OC)-c1ccccc1C(C(OC(C)=O)c1ccccc1)C3N(C)CC2` (stereo not drawn), the TGI in test [1], in test [2], in test [4], in [5], in test [6] and in test [7] was greater than 100 µM throughout. Further, the TGI in [8], in test [9] and in test [10] was greater than 100 µM in each case.
`CC1(C)N=C(N)N=C(N)N1c1ccc(OCC(=O)Nc2cccc(S(=O)(=O)F)c2)c(Cl)c1`: the TGI in test [1] was greater than 100 µM; in test [2], greater than 100 µM; in test [3], greater than 100 µM; in test [4], greater than 19.9 µM; in test [5], greater than 100 µM; in test [6], greater than 100 µM. For the same compound, the TGI was greater than 100 µM in [7], greater than 100 µM in test [8] and greater than 44.4 µM in test [9].
As for `O=C(N[C@@H]1CCCc2ccccc21)[C@H](CCC(=O)N1CCN(C2CCCCC2)CC1)N1C(=O)[C@@H](N2C(=O)OC[C@@H]2c2ccccc2)[C@H]1/C=C/c1ccccc1`, the GI50 in [1] is 2.27 µM; in [2], 1.58 µM; in test [4] it was 1.63 µM; in test [5], 3.11 µM; in [6], 4.01 µM; in test [7], 4.58 µM. The GI50 in test [8] was 3.06 µM; in test [9], 2.02 µM; in [10], 1.86 µM. Besides, the TGI amounted to 5.37 µM in test [1]; 5.18 µM in [2]; 3.15 µM in test [4]; 32 µM in test [5]; 47.5 µM in test [6]; 18.9 µM in test [7]. For the same compound, the TGI in test [8] was 10.8 µM; in test [9] it was 6.01 µM; in [10] it was 3.93 µM.
Take `CC(C)OP(=O)(CP(=O)(OC(C)C)OC(C)C)OC(C)C.[CH3][Sn]([Br])([Br])[Br]`: the GI50 in test [1], in [2], in [3], in [4], in [6] and in test [7] was greater than 100 µM each time. Further, the GI50 in test [8], in [9] and in [10] was greater than 100 µM each time. Besides, the TGI in [1], in test [2], in test [3], in [4], in test [6] and in test [7] was greater than 100 µM throughout. Also, the TGI in test [8], in [9] and in test [10] was greater than 100 µM each time.
Regarding `O=C1OCC(C(=O)c2cccc(O)c2)C1=O` (stereo not drawn), the TGI in test [1], in test [2], in [4], in test [5], in [6] and in test [7] was greater than 100 µM each time. Besides, the TGI in [8], in test [9] and in test [10] was greater than 100 µM in each case.
Turning to `COc1c(O)c(OC)c(C(=O)/C=C/c2ccccc2)c(O)c1OC`, the TGI was greater than 100 µM in test [1]; 81 µM in [2]; greater than 100 µM in test [3]; greater than 100 µM in [4]; greater than 100 µM in test [5]; greater than 100 µM in test [6]. The figures for the TGI in [7], in test [8] and in test [9] were 38.1 µM, 66.2 µM and greater than 100 µM, respectively.
